Measurements taken from patent publication US20250186467A1, “METHODS OF TREATING MEDICAL CONDITIONS USING STAMPIDINE OR A RELATED COMPOUND” (ROME Therapeutics, Inc., priority 2022, published 2025).

Columns and labels:
[1] = tested on: phosphorylated TANK-binding kinase 1 (pTBK1); assay: UVB-induced pTBK1 in HaCaT cells; assay type: cell-based; settings: 96 hours of treatment before UVB, 24 hours post-UVB, ELISA
Procedure: HaCaT cells were plated in 6-well plates at a density of ˜100 k/well in HaCaT media (DMEM, optimized 1× (Addex Bio)+1% pen strep (Gibco)+5% heat inactivated fetal bovine serum (Gibco)). The cells were then cultured at 37° C. overnight. The next day, the cells were treated with the test compounds. Each test compound was diluted and added to media aliquots to provide desired concentrations. To add the test compound+media mixture, an equivalent amount of media from each well was aspirated and then replenished with the media dosed with the test compound. The cells were then cultured for an additional 96 hours with compound treatment prior to UVB exposure.
The media was then aspirated from the wells, with the remaining cells at least 80% confluent in each well. One mL of PBS was then added to each well, and the plate was then placed under a UVB lamp. A UVB sensor was positioned near the plate to register the plate's exposure. The cells were exposed to the UVB light until they reached 0.1 mJ/cm^2. Then the plate was covered and transferred to a sterile hood for processing. […]
A RIPA lysis buffer (#BP-115, Boston Bio-Products) was added to a Halt protease and […] inhibitor cocktail (#78440, ThermoFisher), and the mixture was cooled on ice. […] The protein concentration of the cell lysate was measured using Pierce™ Rapid Gold BCA Protein Assay Kit #AF3225 (ThermoFisher). […]

PBMCs = assay: Decitabine-stimulated human PBMC assay, cell viability; assay type: cell-based; settings: PBMCs with 10 μM decitabine, 5 days
Procedure: After 5 days, the plate was spun down at 100×G for 5 minutes. Supernatants (100 μL) was collected for interferon β (IFN-β) analysis using the MSD assay noted above, and any residual supernatant was stored at −80° C.

Q: Which “reduction of UVB-induced pTBK1” value [1] does the source give for `COC(=O)[C@H](C)N[P@](=O)(OC[C@@H]1C=C[C@H](n2cc(C)c(=O)[nH]c2=O)O1)Oc1ccc(Br)cc1` [Stampidine, methyl ((S)-(4-bromophenoxy)(((2S,5R)-5-(5-methyl-2,4-dioxo-3,4-dihydropyrimidin-1(2H)-yl)-2,5-dihydrofuran-2-yl)methoxy)phosphoryl)-L-alaninate] here?
A: showed a reduction of UVB-induced phosphorylated TANK-binding kinase 1 (pTBK1)

Q: And the cellular toxicity (PBMCs)?
A: without any cellular toxicity
